The values below come from patent US7291611B2, “Benzimidazolidinone derivatives as muscarinic agents” (ACADIA Pharmaceuticals Inc., priority 2001, dated 2007).

Each structure is given as a SMILES string.

In test [1] the target is T1, M1 muscarinic receptor (Homo sapiens, UniProt P11229).
T1 construct: expressed in transfected cells; host or cells: NIH-3T3 cells (ATCC CRL 1658)
T1 sequence (P11229 1-460): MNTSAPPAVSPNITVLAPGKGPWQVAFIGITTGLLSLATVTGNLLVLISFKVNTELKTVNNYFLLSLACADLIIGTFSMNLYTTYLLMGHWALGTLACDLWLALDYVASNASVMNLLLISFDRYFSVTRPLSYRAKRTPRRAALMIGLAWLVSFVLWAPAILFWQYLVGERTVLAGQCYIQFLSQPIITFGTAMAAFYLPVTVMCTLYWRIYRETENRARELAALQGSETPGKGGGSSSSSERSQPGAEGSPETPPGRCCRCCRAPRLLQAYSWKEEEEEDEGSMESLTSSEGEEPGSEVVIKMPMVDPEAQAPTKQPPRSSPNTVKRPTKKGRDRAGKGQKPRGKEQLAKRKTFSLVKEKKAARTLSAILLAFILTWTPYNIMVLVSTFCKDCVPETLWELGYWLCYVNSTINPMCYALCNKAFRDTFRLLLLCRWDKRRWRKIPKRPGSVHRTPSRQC
The test can be described thus: R-SAT functional assay, muscarinic M1 receptor. The test is classed as cell-based. Conditions: for Emax: NIH3T3, relative to maximum response to carbachol, read-out: M1 % Efficacy; for Emax / EC50: R-SAT, transfected NIH-3T3 cells; for EC50: read-out: M1 pEC50 (converted). As for the experimental part: (§1) The M1 and M4 muscarinic receptor subtypes were cloned substantially as described by Bonner et al., (1987) Science […] p. 527 and Bonner et al, (1988) Neuron 1, p. 403. R-SAT assays were carried out substantially as described in U.S. Pat. No. 5,707,798 and by Braüner-Osbome, H. B. and Brann, M. R. (1995), Eur. J. Pharmacol. 295:93-102. NIH-3T3 cells (available from the American Type Culture Collection as ATCC CRL 1658) were transfected with plasmid DNA encoding the m1 and m4 receptors and plasmid DNA encoding β-galactosidase. Transfected cells were grown in the presence of between 1 nM and 40 μM of the test compound for 5 days. On day 5, the cells were lysed using 0.5% nonidet-P and β-galactosidase expression was quantified using the chromogenic substrate o-nitrophenyl-p-D-galactoside (ONGP).
(§2) Data were normalized relative to the maximum response of the cells to the muscarinic agonist carbachol, and the following equation was fitted to the data: response=minimum+(maximum−minimum)/(1+([ligand]/EC50)) % Efficacy was defined as (maximum−minimum)/(maximum response of cells to carbachol). pEC50=−log (EC50). Where data gave a bell-shaped curve, “maximum” was defined as the highest observed response.

Test [2] has as its target T2, M4 muscarinic receptor (Homo sapiens, UniProt P08173).
T2 construct: expressed in transfected cells; host or cells: NIH-3T3 cells (ATCC CRL 1658)
T2 sequence (P08173 1-479): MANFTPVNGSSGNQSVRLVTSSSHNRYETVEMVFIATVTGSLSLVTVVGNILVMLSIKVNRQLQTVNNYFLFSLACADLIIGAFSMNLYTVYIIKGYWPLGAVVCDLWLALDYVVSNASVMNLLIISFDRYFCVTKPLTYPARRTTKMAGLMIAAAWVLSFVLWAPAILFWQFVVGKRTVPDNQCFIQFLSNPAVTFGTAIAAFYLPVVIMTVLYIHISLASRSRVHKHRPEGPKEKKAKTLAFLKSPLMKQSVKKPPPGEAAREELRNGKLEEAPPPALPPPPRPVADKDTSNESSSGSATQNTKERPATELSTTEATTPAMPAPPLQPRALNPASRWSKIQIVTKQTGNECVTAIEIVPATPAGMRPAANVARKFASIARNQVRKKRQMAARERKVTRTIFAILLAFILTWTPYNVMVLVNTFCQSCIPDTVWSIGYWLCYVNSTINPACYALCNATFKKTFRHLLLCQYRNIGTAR
The test is described as follows: R-SAT functional assay, muscarinic M4 receptor. Type of test: cell-based. Conditions: for Emax: NIH3T3, relative to maximum response to carbachol, read-out: M4 % Efficacy; for Emax / EC50: R-SAT, transfected NIH-3T3 cells; for EC50: read-out: M4 pEC50 (converted). As for the experimental part:
as §1, §2

For test [3], the target named is T3, human dopamine D2 receptor (Homo sapiens, UniProt P14416).
T3 construct: expressed in transfected cells; host or cells: tSA cells
The test is described as follows: [3H]-Spiperone radioligand binding to D2 receptor membranes. Particulars: tSA cell membranes, 150 pM [3H]-Spiperone; read-out: D2 [3H]Spiperone pIC50 (converted). The method, then:
The D2 dopamine receptor subtype was cloned substantially as described by Stormann, Gdula, Weiner and Brann, 1990 [Mol Pharmacol 37, 1-6]. Cell membranes expressing the D2 receptor were prepared by transfecting tSA cells (Chahine, M., Bennet, P. B., George, A. L., Horn, R. (1994) Pfluegers Arch. 427, 136-142) with 10 μg plasmid DNA encoding the human dopamine D2 receptor and 40 μl Superfect (Qiagen). The cells were harvested 48 hours and transfection and membranes were prepared by homogenizing the cells using a Polytron harvester in 20 mM Hepes, 10 mM EDTA, pH 7.4. The homogenate was centrifuged for 30 minutes at 37,000 g. The pellet was homogenized again in 60 ml 20 mM Hepes, 5 mM EDTA. The homogenate was centrifuged for 30 minutes at 37,000 g. The supernatant was discarded. The pellet was homogenized again in 10 ml 20 mM Hepes, 1 mM EDTA. The resultant membranes were frozen at −80° C.
The membranes were combined with 150 pM [^3H]-Spiperone (Amersham-Pharmacia, 107 Ci/mmol) and ligand concentrations between 1 nM and 10 μM, or haloperidol concentrations between 0.1 nM and 1 μM in 460 μl 20 mM Hepes, 1 mM EDTA, 0.1% (w/v) bovine serum albumin. Nonspecific binding was defined as binding in the presence of 1 μM haloperidol. The membranes were incubated for 4 hours at 37° C., and then filtered onto Packard GFB Filterplates using a Packard harvester. The membranes were dried and 50 μl Microscint (Packard) was added to each well. The amount of bound radioligand was quantified using a Packard Topcount scintillation counter.
Data were normalized relative to the maximum inhibition of [^3H]-Spiperone binding by 1 μM haloperidol, and the following equation was fitted to the data: % inhibition=minimum+(maximum−minimum)/(1+([ligand]/[IC50])) % inhibition was defined as (maximum−minimum)/(maximum response of cells to haloperidol). pIC50=−log (IC50). NT=not tested. Results

T3 sequence (P14416 1-414 isoform P14416-2): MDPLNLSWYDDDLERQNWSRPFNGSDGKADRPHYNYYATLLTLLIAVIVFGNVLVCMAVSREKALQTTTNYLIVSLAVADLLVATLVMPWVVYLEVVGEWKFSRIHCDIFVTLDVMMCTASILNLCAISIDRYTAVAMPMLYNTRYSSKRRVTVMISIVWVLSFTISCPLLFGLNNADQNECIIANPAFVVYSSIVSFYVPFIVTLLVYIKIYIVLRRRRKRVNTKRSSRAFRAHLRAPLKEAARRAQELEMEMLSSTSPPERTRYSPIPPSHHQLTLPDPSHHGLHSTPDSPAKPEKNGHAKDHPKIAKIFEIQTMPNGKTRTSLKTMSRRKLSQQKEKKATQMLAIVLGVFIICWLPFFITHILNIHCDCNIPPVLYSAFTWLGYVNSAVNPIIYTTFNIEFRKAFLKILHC

On to `CCCCC1CCN(CCCn2c(=O)oc3cccc(C)c32)CC1` [Compound 86KK25-a, 3-[3-(4-butylpiperidin-1-yl]propyl)-4-methyl-3H-benzooxazol-2-one], for which the Emax in test [1] was determined as 73%; in test [2], 36%. Besides, in test [1], the EC50 is 100 nM. The IC50 in test [3] was 631 nM.

Consider `CCCCC1CC2CCC(C1)N2CCCn1c(=O)sc2ccccc21` (centres unmarked) [Compound 97KS96-2, 3-[3-(3-Butyl-8-aza-bicyclo[3.2.1]oct-8-yl)-propyl]-3H-benzothiazol-2-one], for which the values for the Emax in test [1] and in test [2] were 63% and 50%, respectively. In addition, the EC50 in test [1] is 50.1 nM. The IC50 in test [3] is 100 nM.

Regarding `CC(C)CC=C1CCN(CCCn2c(=O)[nH]c3ccccc32)CC1` [Compound 45NK-70, 1-{3-[4-(3-Methylbutylidene)piperidin-1-yl]propyl}-1,3-dihydrobenzoimidazol-2-one], in test [1], the “binding efficacy for the M1 receptor subtype” value is given as “high binding efficacy”, the Emax stood at 70% and the EC50 is 50.1 nM. Further, in test [2], the “binding efficacy for the M4 receptor subtype” value is “high binding efficacy”, the Emax came out at 40% and the EC50 is 79.4 nM. Further, the IC50 in test [3] was 631 nM.

For `CCCCCC1CC2CCC(C1)N2CCCn1c(=O)sc2ccccc21` (centres unmarked) [Compound 79KS97, 3-[3-(3-Pentyl-8-aza-bicyclo[3.2.1]oct-8-yl)-propyl]-3H-benzothiazol-2-one], in test [1], the Emax amounted to 70% and the EC50 was 6.31 nM. The IC50 in test [3] is 100 nM.

For the compound `CCCCC1CCN(CCCn2c(=O)oc3cc(F)ccc32)CC1` [Compound 97KK28, 3-[3-(4-butylpiperidin-1-yl)propyl]-6-fluoro-3H-benzooxazol-2-one], in test [1], the Emax turned out to be 71% and the EC50 was 200 nM. Also, the IC50 in test [3] was 251 nM.

For the compound `CCCOC1CCN(CCCn2c(=O)sc3ccccc32)CC1` [Compound 61KS70-1, 3-[3-(4-Propoxy-piperidin-1-yl)-propyl]-3H-benzothiazol-2-one], in test [1], the Emax amounted to 96% and the EC50 is 79.4 nM. Moreover, in test [2], the Emax is 112% and the EC50 is 794 nM. Moreover, in test [3], the IC50 was 316 nM.

As for `CCCCCC1CCN(CCCn2c(=O)[nH]c3ccccc32)CC1` [Compound 45NK-71, 1-[3-(4-Pentylpiperidin-1-yl)propyl]-1,3-dihydrobenzoimidazol-2-one], in test [1], the “binding efficacy for the M1 receptor subtype” value is listed as “high binding efficacy”, the Emax was found to be 71% and the EC50 was 100 nM. In addition, in test [2], the “binding efficacy for the M4 receptor subtype” value was “high binding efficacy”, the Emax is 49% and the EC50 is 251 nM. Further, the IC50 in test [3] is 398 nM.

For the compound `CCCCC1CCN(CCCn2c(=O)sc3ccccc32)CC1` [Compound 62KK040d, 3-[3-(4-Butylpiperidin-1-yl)propyl]-3H-benzothiazol-2-one], the Emax amounted to 83% in test [1] and 93% in test [2]. For the same compound, the results for the EC50 in test [1] and in test [2] were 25.1 nM and 398 nM, respectively. In addition, the IC50 in test [3] was 79.4 nM.

Consider `CCCCC1CCN(CC(C)Cn2c(=O)sc3ccccc32)CC1` (centres unmarked) [Compound 85LM14, 3-(3-(4-Butyl-piperidin-1-yl)-2-methyl-propyl)-3H-benzothiazol-2-one], for which the Emax in test [1] worked out at 104%; in test [2] it was 94%. The figures for the EC50 in test [1] and in test [2] were 31.6 nM and 1580 nM, respectively. Also, the IC50 in test [3] is 79.4 nM.

In the case of `CCCCC1CCN(CCCn2c(=O)n(C)c3ccccc32)CC1` [Compound 45NK-110, 1-[3-(4-Butylpiperidin-1-yl)propyl]-3-methyl-1,3-dihydrobenzoimidazol-2-one], in test [1], the “binding efficacy for the M1 receptor subtype” value is recorded as “high binding efficacy”, the Emax amounted to 89% and the EC50 is 100 nM. For the same compound, in test [2], the “binding efficacy for the M4 receptor subtype” value was “high binding efficacy”, the Emax came to 61% and the EC50 is 1260 nM. Besides, the IC50 in test [3] was 3160 nM.

As to `CCCCC1CCN(CCCn2c(=O)oc3ccc(F)cc32)CC1` [Compound 86KK22-K, 3-[3-(4-butylpiperidin-1-yl)propyl]-5-fluoro-3H-benzooxazol-2-one], the Emax in test [1] amounted to 75%; in test [2], 56%. Also, the figures for the EC50 in test [1] and in test [2] were 200 nM and 1260 nM, respectively. Also, the IC50 in test [3] is 631 nM.

Consider `CCCCC1CCN(CCCn2c(=O)oc3ccc(C)cc32)CC1` [Compound 86KKM25-d, 3-[3-(4-butylpiperidin-1-yl)propyl]-5-methyl-3H-benzooxazol-2-one], for which the Emax in test [1] amounted to 84%; in test [2] it was 63%. The figures for the EC50 in test [1] and in test [2] were 100 nM and 794 nM, respectively.

On to `CCCC=C1CCN(CCCn2c(=O)[nH]c3ccccc32)CC1` [Compound 61KS-12, 1-(3-[4-Butylidenepiperidino]propyl)-1,3-dihydrobenzimidazol-2-one], for which, in test [1], the “binding efficacy for the M1 receptor subtype” value is reported as “high binding efficacy”, the Emax was 107% and the EC50 is 31.6 nM. In test [2], the “binding efficacy for the M4 receptor subtype” value was “high binding efficacy”, the Emax is 164% and the EC50 was 79.4 nM. Further, the IC50 in test [3] was 1000 nM.

`CCCOC1CCN(CC(C)Cn2c(=O)sc3ccccc32)CC1` (centres unmarked) [Compound 85LM49B, 3-(3-(4-Propoxy-piperidin-1-yl)-2-methyl-propyl)-3H-benzothiazol-2-one]: in test [1], the Emax is 98% and the EC50 is 25.1 nM.

Regarding `CCCCC1CCN(CCCN2C(=O)Cc3ccccc32)CC1` [Compound 85LM12, 1-(3-(4-Butylpiperidin-1-yl)propyl)-1,3-dihydro-indol-2-one], in test [1], the Emax was determined as 78% and the EC50 is 126 nM. Besides, the IC50 in test [3] is 398 nM.
